These results are taken from patent US7358074B2, “Human phosphatase RET31, and variants thereof” (Bristol-Myers Squibb Company, priority 2000, dated 2008).

Entries after “also recorded” stand apart in the source; their conditions may differ.

The target of data set [1] is T1, M1 to T302 C-terminal RET31 (Homo sapiens, UniProt Q9BY84, I6V/M5I/N284S).
T1 construct: made in house
T1 sequence (Q9BY84 1-302 M5I/I6V/N284S): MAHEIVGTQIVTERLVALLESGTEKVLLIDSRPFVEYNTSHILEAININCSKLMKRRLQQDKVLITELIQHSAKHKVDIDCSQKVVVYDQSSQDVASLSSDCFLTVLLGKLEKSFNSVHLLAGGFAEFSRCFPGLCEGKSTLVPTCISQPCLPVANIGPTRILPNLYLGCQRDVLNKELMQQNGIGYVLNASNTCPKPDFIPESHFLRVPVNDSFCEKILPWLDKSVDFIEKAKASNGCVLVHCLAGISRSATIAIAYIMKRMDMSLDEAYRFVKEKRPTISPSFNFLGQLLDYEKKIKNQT
The experiment in a line: phosphatase activity assay, hydrolysis of para-nitrophenylphosphate (pNPP). It is filed as biochemical. To be noted: 2 mM orthovanadate; pNPP substrate; FIG. 36. The procedure: (§1) The phosphatase activity for the full-length RET31 and the M1 to T302 C-terminal RET31 GST fusion proteins were measured by assaying the ability of the proteins to hydrolyze para-nitrophenylphosphate, a compound known to be a substrate for phosphatases, as described in Krejsa, C. et al., J. Biol. Chem. Vol. 272, p. 11541-11549, 1997 (which is hereby incorporated in its entirety herein). The proteins are incubated with para-nitrophenylphosphate in a solution containing 10 mM imidazole, pH 7.0, 1 mM EDTA, 2 mM dithiothreitol, and 5 μg/ml BSA for 2 hours with and without sodium orthovanadate (Fisher) prepared in distilled water. The progress of the phosphatase reaction in a 96-well format was monitored by the OD405 nm on a plate reader (Molecular Devices) at 10-minute intervals in the kinetic mode.
(§2) The RET31-GST full length (FL), M1 to T302 C-terminal RET31-GST (trunc), or GST alone were purified and assayed for cleavage of para-nitrophenylphosphate (pNPP). The bars represent the average of triplicate determinations, and the standard deviations are as shown. Each protein preparation was assayed in the absence and presence of 2 mM of the phosphatase inhibitor orthovanadate. In addition, the full length and truncated protein phosphatase activity was blocked by the phosphatase inhibitor vanadate, as shown.

Data set [2] deals with T2, full-length RET31 (Homo sapiens, UniProt Q9BY84, C584R/N284S/T302A).
T2 construct: made in house
T2 sequence (Q9BY84 with tags, fused parts or gaps N284S/T302A/C584R): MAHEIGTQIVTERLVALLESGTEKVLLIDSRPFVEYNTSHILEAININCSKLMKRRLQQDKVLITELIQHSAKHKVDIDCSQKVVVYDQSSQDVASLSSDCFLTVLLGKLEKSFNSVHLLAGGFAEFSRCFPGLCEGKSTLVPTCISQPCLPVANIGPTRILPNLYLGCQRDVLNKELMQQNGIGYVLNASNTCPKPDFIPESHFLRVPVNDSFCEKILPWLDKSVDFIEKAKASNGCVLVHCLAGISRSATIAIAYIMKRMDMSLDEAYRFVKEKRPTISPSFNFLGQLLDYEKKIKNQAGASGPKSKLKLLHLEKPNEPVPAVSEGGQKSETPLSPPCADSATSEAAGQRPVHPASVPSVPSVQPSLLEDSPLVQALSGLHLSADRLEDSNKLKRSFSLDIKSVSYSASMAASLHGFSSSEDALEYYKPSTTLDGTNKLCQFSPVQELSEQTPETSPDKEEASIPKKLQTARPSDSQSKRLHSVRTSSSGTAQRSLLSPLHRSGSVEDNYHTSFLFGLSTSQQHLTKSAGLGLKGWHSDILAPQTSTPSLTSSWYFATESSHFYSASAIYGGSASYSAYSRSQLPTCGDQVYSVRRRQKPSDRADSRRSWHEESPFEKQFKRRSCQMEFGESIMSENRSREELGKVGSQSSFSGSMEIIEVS
The data set is described as above. It is filed as biochemical. To be noted: 2 mM orthovanadate; pNPP substrate; FIG. 36. The procedure:
as §1, §2

The test system of data set [3] is RET31. In words: para-nitrophenylphosphate (pNPP) phosphatase activity assay of purified RET31-GST fusion proteins. The class given is biochemical, human. The procedure:
The bars represent the average of triplicate determinations, and the standard deviations are as shown. Each protein preparation was assayed in the absence and presence of 2 mM orthovanadate (”-van”). […] The phosphatase assays were performed as described in Example 57 herein.
In addition to assaying the full-length RET31 polypeptide (SEQ ID NO:109), a C-terminal deletion of RET31 was also assayed corresponding to amino acids M1 to T302 of SEQ ID NO:109).

Data set [4] has as its system human lung fibroblasts. The experiment in a line: human lung fibroblast proliferation assay, Alamar Blue. It is filed as cell-based. To be noted: 3 days in basal medium, expected (should show). The procedure: Human lung fibroblasts are obtained from Clonetics (San Diego, Calif.) and maintained in growth media from Clonetics. Dermal microvascular endothelial cells are obtained from Cell Applications (San Diego, Calif.). For proliferation assays, the human lung fibroblasts and dermal microvascular endothelial cells can be cultured at 5,000 cells/well in a 96-well plate for one day in growth medium. The cells are then incubated for one day in 0.1% BSA basal medium. After replacing the medium with fresh 0.1% BSA medium, the cells are incubated with the test proteins for 3 days. Alamar Blue (Alamar Biosciences, Sacramento, Calif.) is added to each well to a final concentration of 10%. The cells are incubated for 4 hr. Cell viability is measured by reading in a CytoFluor fluorescence reader. For the PGE2 assays, the human lung fibroblasts are cultured at 5,000 cells/well in a 96-well plate for one day. […]
Background: Alamar Blue is a resazurin reagent that responds to reducing activity.

Consider `[Na+].[Na+].[Na+].[O]=[V]([O-])([O-])[O-]` [orthovanadate, sodium orthovanadate], for which the “effect of phosphatase inhibitor on phosphatase activity” value in data set [1] and in data set [2] was “blocked” each time. `[O]=[V]([O-])([O-])[O-]` [vanadate]: the “inhibition of RET31 phosphatase activity” value in data set [3] (2 mM orthovanadate, full-length and M1 to T302 RET31-GST) is given as “blocked; also recorded: specifically inhibited”. For the molecule “FGF-2: FGF-2 (basic FGF), comparison growth factor”, the “concentration showing stimulation of growth of fibroblasts” value in data set [4] was in the range of 10 to 2500 ng/mL.

B1: M1 to T302 RET31 C-terminal deletion mutant: C-terminal deletion of RET31 corresponding to amino acids M1 to T302 of SEQ ID NO:109, GST fusion (protein, listed as Homo sapiens)
chain: MAHEMIGTQIVTERLVALLESGTEKVLLIDSRPFVEYNTSHILEAININCSKLMKRRLQQDKVLITELIQHSAKHKVDIDCSQKVVVYDQSSQDVASLSSDCFLTVLLGKLEKSFNSVHLLAGGFAEFSRCFPGLCEGKSTLVPTCISQPCLPVANIGPTRILPNLYLGCQRDVLNKELIQQNGIGYVLNASYTCPKPDFIPESHFLRVPVNDSFCEKILPWLDKSVDFIEKAKASNGCVLVHCLAGISRSATIAIAYIMKRMDMSLDEAYRFVKEKRPTISPNFNFLGQLLDYEKKIKNQT
modifications: GST fusion partner lacks entry
As for B1, the “increase in phosphatase activity relative to the full-length RET31 polypeptide” value in data set [3] (pNPP substrate, GST fusion proteins) is “five fold increase”. For the same molecule, in data set [3] (purified GST fusion protein, pNPP substrate, compared to purified GST alone), the “phosphatase activity via cleavage of the NPP substrate” value is “demonstrated phosphatase activity”.
